In patent US11351291B2, “Systems or apparatuses and methods for performing dialysis” (ADVITOS GMBH, priority 2016, dated 2022):

Assays:
albumin [1] = target: T1, albumin (Homo sapiens, UniProt P02768); details: binding to albumin; reported association constants; cited from earlier work
albumin [2] = target: T1, albumin; experiment: pH dependence of binding affinity for albumin
Excerpt: Adjusting the pH of the fluids to the acidic and/or basic range makes it possible to selectively influence the binding of different substances to the respective carrier proteins or adsorbers. […] For example, the binding of copper ions to albumin can be weakened in this way so that free, dissolved copper ions in the following filter can be removed by dialysis, filtration, diafiltration, centrifugation, a field, or sorting by weight difference. Analogously, the pH of the fluid can be adjusted to the basic range so that the toxins liberated in the alkaline range can then be eliminated from the fluid by dialysis, filtration or diafiltration. […] A pH range of 8-13 is often preferred.
Devices for adjusting the pH include especially devices for adding acid or base, for example metering pumps. Appropriate acids or bases arc aqueous solutions of biologically compatible acids or bases. It is generally preferable to use acids or bases whose conjugate bases or acids are ions that occur naturally in the human organism. Examples of acids which can be used are hydrochloric acid, sulfuric acid or acetic acid, hydrochloric acid being preferred. Examples of bases which can be used are sodium hydroxide solution or potassium hydroxide solution, sodium hydroxide solution being preferred. […]

T1 sequence (P02768 25-609): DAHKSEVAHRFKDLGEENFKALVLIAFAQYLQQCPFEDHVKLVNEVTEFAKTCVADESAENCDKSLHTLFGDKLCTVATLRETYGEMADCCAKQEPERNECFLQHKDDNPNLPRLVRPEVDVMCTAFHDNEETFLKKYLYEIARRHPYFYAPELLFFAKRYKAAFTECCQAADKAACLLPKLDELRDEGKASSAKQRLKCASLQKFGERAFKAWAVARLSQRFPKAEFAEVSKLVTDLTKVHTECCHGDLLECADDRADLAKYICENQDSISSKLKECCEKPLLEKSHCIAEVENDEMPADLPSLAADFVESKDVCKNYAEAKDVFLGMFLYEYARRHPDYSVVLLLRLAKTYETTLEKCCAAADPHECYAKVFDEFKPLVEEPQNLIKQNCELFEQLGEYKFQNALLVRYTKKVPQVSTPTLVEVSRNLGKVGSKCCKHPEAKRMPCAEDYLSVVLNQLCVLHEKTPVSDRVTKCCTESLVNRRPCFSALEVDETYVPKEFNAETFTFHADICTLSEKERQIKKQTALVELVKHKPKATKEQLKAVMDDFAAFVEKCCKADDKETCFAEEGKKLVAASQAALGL

Molecule | Association constant, KA (albumin [1]) | binding affinity for albumin (albumin [2]; pH above about 3) | binding affinity for albumin (albumin [2]; pH range around 2)
C=C1CC[C@H](O)C/C1=C/C=C1\CCC[C@]2(C)[C@@H]([C@H](C)CCCC(C)(C)O)CC[C@@H]12 [25,OH—VitaminD3] | 600000 M⁻¹ | – | –
C[C@]12CCC(=O)C=C1CC[C@@H]1[C@@H]2[C@@H](O)C[C@]2(C=O)[C@@H](C(=O)CO)CC[C@@H]12 [Aldosterone] | 3200 M⁻¹ | – | –
C/C1=C2N=C(/C=C3N=C(/C(C)=C4\[N-]C(C(CC(N)=O)C4(C)CCC(=O)NCC(C)OP(=O)([O-])OC4C(CO)OC(n5cnc6cc(C)c(C)cc65)C4O)C4(C)N=C1C(CCC(N)=O)C4(C)CC(N)=O)C(CCC(N)=O)C\3(C)C)C(CCC(N)=O)C/2(C)CC(N)=O.O.[Co+3].[OH-] (centres unmarked) [Aquocobalamin] | 2e+07 M⁻¹ | – | –
[Ca+2] [Calcium] | 1510 M⁻¹ | – | –
Cl [Chloride] | 720 M⁻¹ | – | –
C[C@]12CCC(=O)C=C1CC[C@@H]1[C@@H]2[C@@H](O)C[C@@]2(C)[C@H]1CC[C@]2(O)C(=O)CO [Cortisol] | 5000 M⁻¹ | – | –
CCCCC[C@H](O)/C=C/[C@H]1[C@H](O)CC(=O)[C@@H]1CCCCCCC(=O)O [Eicosanoids (PGE1), PGE1] | 70000 M⁻¹ | – | –
C=CC1=C(C)c2cc3[n-]c(cc4[n-]c(cc5nc(cc1n2)C(C)=C5C=C)c(C)c4CCC(=O)O)c(CCC(=O)O)c3C.O.[Fe+2] [Hematin] | 1.1e+08 M⁻¹ | – | –
N[C@@H](Cc1c[nH]c2ccccc12)C(=O)O [L-tryptophan] | 10000 M⁻¹ | – | –
[Mg+2] [Magnesium] | 100 M⁻¹ | – | –
CC(=O)[C@H]1CC[C@H]2[C@@H]3CCC4=CC(=O)CC[C@]4(C)[C@H]3CC[C@]12C [Progesterone] | 360000 M⁻¹ | – | –
C[C@]12CC[C@H]3[C@@H](CCC4=CC(=O)CC[C@@]43C)[C@@H]1CC[C@@H]2O [Testosterone] | 24000 M⁻¹ | – | –
[Zn+2] [Zinc(II)] | 3.4e+07 M⁻¹ | – | –
Copper(II) | 1.5e+16 M⁻¹ | particularly high binding affinity | significantly lowered
t-25-(OH)2—Vitamin D3 | 50000 M⁻¹ | – | –
